EP1137438B1, “FORMULATION WITH AN IMPROVED THERAPEUTIC RANGE, CONTAINING NUCLEOTIDE SYNTHESIS INHIBITORS” (Aventis Pharma Deutschland GmbH, priority 1998, dated 2000)

Tests used:
[1] = test system: Adjuvans induzierte Arthritis; test: Adjuvant-induced arthritis, modification after Perper (paw volume, arthritis index on day 18); assay type: in vivo, männliche Ratten eines Lewis-Stammes
Experimental: Adjuvans induzierte Arthritis, Modifikation nach Perper (Proc. Soc. exp. Biol. Med. 137, 506 (1971)) Als Versuchstiere dienten männliche Ratten eines Lewis-Stammes (Moellegard, Dänemark) mit einem Körpergewicht von 160 bis 210 g. Die Tiere erhielten am 1.
Tag eine subkutane Injektion in die Schwanzwurzel mit kompletten Freund'schen Adjuvans, enthaltend eine Mycobacterium butyricum Suspension in schwerem Paraffin Öl (Difco; 6 mg/kg in Paraffin Öl; Merck). Die Verbindungen N-(4-Trifluormethylphenyl)-2-cyan-3-hydroxy-crotonsäureamid und Colestyramin wurden in Carboxymethylcellulose (1 % in Wasser) suspendiert und oral verabreicht. Die Verbindungen wurden einmal täglich vom 1. bis zum 17. Versuchstag appliziert; dann erfolgte die Bestimmung des Pfotenvolumens und Arthritis-Index am 18. Tag.
Die Schwere der Erkrankung wurde durch Messung des Pfotenvolumens beider Hinterpfoten bestimmt. Die Messung erfolgte durch die Wasserverdrängungsmethode mit einem Plethysmometer 2060 (Rhema-Labortechnik, Hofheim, Deutschland). Ferner erfolgte die Bestimmung des Arthritis Index am 18. Tag nach der Injektion.
Bestimmung des Arthritis Index: 1. Ohren 0,5 Punkte für jedes Ohr an dem eine Rötung auftritt und Knoten gebildet werden 2. Nase 1 Punkt für Bindegewebsschwellung 3. Schwanz 1 Punkt für das Auftauchen von Knoten 4. Vorderpfoten 0,5 Punkte für jede Pfote an der wenigsten eine Entzündung an einem Gelenk auftritt 5. Hinterpfoten 1 Punkt für leichte Entzündung (Schwellung) 2 Punkte für eine mittelstarke Entzündung 3 Punkte für eine massive Entzündungsreaktion
Tiere einer Kontrollgruppe "Arthritis Kontrolle" erhielten am 1. Tag eine subkutane Injektion in die Schwanzwurzel mit kompletten Freund'schen Adjuvans und erhielten aber nur das Lösungsmittel (1 % Carboxymethylcellulose in Wasser). Pro Dosierung und in der Kontrollgruppe wurden jeweils 6 Tiere verwendet. Als weitere Kontrollgruppe "gesunde Kontrolle" wurden unbehandelte Tiere eingesetzt. Als Wirkungskriterium diente die Herabsetzung der Pfotenvolumenzunahme und die Abnahme des Arthritis Index gegenüber der unbehandelten Kontrollgruppe und das Gewicht der Tiere jeweils in Prozent und bezogen auf die Arthritis Kontrolle.
In der folgenden Tabelle wird N-(4-Trifluormethylphenyl)-2-cyan-3-hydroxycrotonsäureamid als Verbindung 1 bezeichnet. Colestyramin wurde 4 Stunden später als Verbindung 1 appliziert. Tabelle 1 zeigt die erhaltenen Ergebnisse. Tabelle 1

[2] = Blood levels and duration of action of Verbindung 1 after later administration of Colestyramin; assay type: in vivo; conditions: after later administration of Colestyramin (interruption of enterohepatic circulation); result in words
From the text: Die erfindungsgemäße Zubereitung kann auch Kompositionen oder Kombinationspackungen umfassen, in denen die Bestandteile nebeneinander gestellt sind und deshalb gleichzeitig, getrennt oder zeitlich abgestuft an ein und denselben menschlichen oder tierischen Körper anwendbar sind. Bevorzugt ist die zeitlich abgestufte Applikation von der Verbindung der Formel I und/oder II vor der Applikation der Verbindung, die die enterohepatische Zirkulation der Verbindung der Formel I oder II im wesentlichen verhindert. Hierzu wird beispielsweise zuerst N-(4-Trifluormethylphenyl)-2-cyan-3-hydroxy-crotonsäureamid (im folgenden als Verbindung 1 bezeichnet) appliziert. Colestyramin, das die enterohepatische Zirkulation der Verbindung 1 im wesentlichen verhindert, wird zeitlich versetzt, also z.B. 2 Stunden oder 4 Stunden nach der Gabe der Verbindung 1, appliziert. Durch diese zeitlich versetzte Gabe der Verbindung 1 und Colestyramin wird die Verbindung 1 zunächst ungehindert aus dem Verdauungstrakt resorbiert.
Nach der Gabe von Colestyramin, welches systemisch nicht resorbiert wird, wird die über die Galle ausgeschiedene Verbindung 1 an Colestyramin gebunden und kann daher nicht wieder reabsorbiert werden; dadurch wird eine Unterbrechung der enterohepatischen Zirkulation bewirkt.

[3] = Tabelle 1, Verbindung 1 25 mg/kg oral (combination: + 1000 mg/kg Colestyramin 4 h later), once daily day 1-17, read day 18
[4] = Tabelle 1, Verbindung 1 2,5 mg/kg oral (combination: + 1000 mg/kg Colestyramin 4 h later), once daily day 1-17, read day 18
[5] = Tabelle 1, Verbindung 1 7,5 mg/kg oral (combination: + 1000 mg/kg Colestyramin 4 h later), once daily day 1-17, read day 18
[6] = Tabelle 2 (Beispiel 2), Colestyramin 1000, Verbindung 1 25, combination 25 + 1000 mg/kg (Colestyramin 4 h later)
[7] = Tabelle 3 (Beispiel 3), Colestyramin 1000, Verbindung 1 25, combination 25 + 1000 mg/kg (Colestyramin 4 h later)

CC(O)=C(C#N)C(=O)Nc1ccc(C(F)(F)F)cc1 [Verbindung 1, N-(4-Trifluormethylphenyl)-2-cyan-3-hydroxy-crotonsäureamid]
Arthritis Index (%) [1, 3]: -100% | Pfotenvolumen (%) [1, 3]: -92% | Arthritis Index (%) [1, 4]: -77% | Pfotenvolumen (%) [1, 4]: -63% | Arthritis Index (%) [1, 5]: -92% | Pfotenvolumen (%) [1, 5]: -83% | Arthritis Index (%) [1, 6]: -100% | Pfotenvolumen (%) [1, 6]: -92% | Arthritis Index (%) [1, 7]: -100% | Pfotenvolumen (%) [1, 7]: -110% | Wirksamkeit im pathologischen Tiermodell (Adjuvans Arthritis) ([1]; about 2,5 mg/kg/Tag Verbindung 1, effect of added Colestyramin, result in words): nicht vermindert | Wirkungsdauer und Blutspiegel der Verbindung 1 [2]: drastisch reduziert
